“Also recorded” adds a separate entry of the source.

Data set [1] relates to Parkinson's mouse models. The conditions noted are these: Parkinson's mouse models (Patki, 2011); cited from earlier work.
Data set [2] relates to patients. Conditions: cited from earlier work; for disease symptoms in patients: treatment reported in literature.
Data set [3] concerns MNT-1 cells. Description: Rapamycin-induced autophagy in MNT-1 cells, melanin content as readout. Conditions: autophagy induced by rapamycin, exposure to α-MSH, FIG. 1A. It is filed as cell-based, human. From the text:
FIG. 1A is a bar chart depicting α-MSH disabling autophagy in MNT-1 cells when autophagy is induced by rapamycin.
(§1) FIGS. 1-6 show the induction of synucleinopathy in vitro and in vivo upon exposure to α-MSH employing the MNT-1 cell line (a gift from Michael S. Marks, Ph.D.) as an in vitro model of neuromelanin-containing neurons and the mouse administered α-MSH by intranasal route, respectively. […] Additionally, rapamycin induced autophagy was reduced in the prescence of α-MSH (FIG. 1A). Normally an increase in melanin production by MNT-1 is observed in the presence of rapamycin, since rapamycin induces autophagy and autophagy-related genes that promote melanogenesis. Melanin levels serve as a reliable readout of autophagy in MNT-1 (Kalie, 2013). Indeed, a decrease in melanin was observed when autophagy was inhibited in melanocytes (Zhang, 2015).
A human pigmented cell line MNT-1 was utilized as a model for pigmented dopaminergic neurons to assess synuclein pathology following exposure to the inducer, α-MSH. […] Additionally, cell autophagy induced by rapamycin or starvation was disabled (FIGS. 1A and 1B). […] With time, vulnerable cells begin to die and undergo apoptotic cell death as measured by caspase activity (FIG. 4B). α-Synuclein accumulation and aggregation, loss of melanin and cell death by apoptosis are cardinal features observed in synuclein diseases such as PD and MSA.

The test system of data set [4] is mice. Description: Induction of synucleinopathy in mice by intranasal α-MSH, gait on rotorod. Format: in vivo, mouse. The conditions noted are these: α-MSH intranasal left nostril every other day for one month. An excerpt:
FIGS. 5A-B depict the in vivo induction of synucleinopathy in mice by α-MSH. FIG. 5A is a drawing showing the administration of α-MSH into the left nostril of the mouse and a timeline showing frequency of administration and behavioral testing performed by rotorod. FIG. 5B is a series of rotorod testing photographs of a mouse chronically administered α-MSH by intranasal route for a period of 1 month to induce synucleinopathy (see FIG. 5a).
Three mice were given the inducer, α-MSH, which was administered once every other day for one month through an intranasal route through the left nostril (FIG. 5a), and one mouse not subjected to the α-MSH inducer served as a healthy control. Observations and measurements were taken weekly at the end of α-MSH administration. […] The control mouse not subjected to α-MSH maintained normal gait and leg movement. Gait impairment observed in the three mice given the α-MSH, is characteristic of motor symptoms associated with PD and MSA symptoms. Moreover, the time-dependent intensified serverity of gait impairment after α-MSH administration is indicative of disease progression as measured through manisfestation of worsening physical symptoms. […]
Three mice were given the inducer, α-MSH, through an intranasal route and one mouse was not subjected to α-MSH. The gait of all four mice was monitored every […] after subjection to one month of α-MSH treatment. […]
For orientation: In the rotarod test animals must keep their balance on a rotating rod.

Data set [5] deals with MNT-1 cells. Put plainly: Apoptosis by fluorescence-based detection of activated caspases (microscopy, flow cytometry). It is filed as cell-based, human. Conditions: FIG. 4B.
From the text: (§2) FIGS. 4A-C depict the mechanism of cell death induced by α-MSH and inhibition by ASIP, which blocks cell death. […] Vulnerable cells appear with higher fluorescence intensity for the marker of apoptosis, while untreated cells remain alive and show only background fluorescence (top-left panel). […] FIG. 4C is a bar chart depicting ASIP blocking α-MSH effects and protecting against cell death.
as §1
For orientation: Flow cytometry measures light scatter and fluorescence of single cells or particles in a stream.

Data set [6] has as its system MNT-1 cells. Description: Starvation-induced (nutrient-depleted) autophagy and melanin formation in MNT-1 cells. It is filed as cell-based, human. Conditions: starved MNT-1 cells, α-MSH treated vs untreated, FIG. 1B.
From the text: FIG. 1B is a photograph of cells in wells of a culture plate depicting starvation-induced autophagy in cells is inhibited by α-MSH resulting in inhibition of melanin production.
as §1
A human pigmented cell line MNT-1 was utilized as a model for pigmented dopaminergic neurons to assess synuclein pathology following exposure to the inducer, α-MSH. […] With time, vulnerable cells begin to die and undergo apoptotic cell death as measured by caspase activity (FIG. 4B). α-Synuclein accumulation and aggregation, loss of melanin and cell death by apoptosis are cardinal features observed in synuclein diseases such as PD and MSA.

The test system of data set [7] is MNT-1 cells. Put plainly: Glucose consumption of cells in culture exposed to α-MSH. Format: cell-based, human. The conditions noted are these: α-MSH exposed vs not exposed cells, low nutrient conditions, FIG. 4A.
Data set [8] deals with MNT-1 cells. Put plainly: Immunofluorescence staining of intracellular α-synuclein in MNT-1 cells. It is filed as cell-based, human.
From the text: as §1
FIGS. 2C, 3, and 4C show human ASIP inhibiting the effects of α-MSH in cellular models and is an effective therapeutic for preventing and reversing synuclein pathology. ASIP was tested as a therapeutic for synucleinopathy in the in vitro cellular model of neuromelanin-containing neurons modeled by MNT-1 cells. […] Immunofluorescence from the α-MSH and ASIP treated cells display similar quantity of α-synuclein compared to healthy, non-treated cells. […]

For data set [9], the system named is substantia nigra of mouse. Put plainly: Immunohistochemistry of mouse brain sections for alpha-synuclein. It is filed as in vivo. Conditions: mouse given α-MSH in left nostril, anti-mouse alpha synuclein staining, FIG. 6a. As for the experimental part:
FIGS. 6A-B are immunohistochemistry microscopy photographs of brain sections stained with anti-mouse alpha synuclein (BD Biosciences, Clone 42/α-Synuclein).
Three mice were given the inducer, α-MSH, which was administered once every other day for one month through an intranasal route through the left nostril (FIG. 5a), and one mouse not subjected to the α-MSH inducer served as a healthy control. Observations and measurements were taken weekly at the end of α-MSH administration. […] The control mouse not subjected to α-MSH maintained normal gait and leg movement. Gait impairment observed in the three mice given the α-MSH, is characteristic of motor symptoms associated with PD and MSA symptoms. Moreover, the time-dependent intensified serverity of gait impairment after α-MSH administration is indicative of disease progression as measured through manisfestation of worsening physical symptoms. A cardinal feature of synucleinopathy pathology is the presence of aggregated intracellular alpha-synuclein, which is the predominant constituent of Lewy bodies and glial cytoplasmic inclusions (GCIs) observed in the affected regions of the brain in PD, MSA and DLB. […] Pathology was absent in the control mouse not subjected to α-MSH (FIG. 6b).

Data set [10] concerns MNT-1 cells. Description: Cell viability of α-MSH exposed cells with ASIP. It is filed as cell-based, human. The conditions noted are these: α-MSH exposed cells with 200 nM ASIP vs without ASIP, FIG. 4C.
From the text: as §2
(§3) FIGS. 2C, 3, and 4C show human ASIP inhibiting the effects of α-MSH in cellular models and is an effective therapeutic for preventing and reversing synuclein pathology. ASIP was tested as a therapeutic for synucleinopathy in the in vitro cellular model of neuromelanin-containing neurons modeled by MNT-1 cells. […] Immunofluorescence from the α-MSH and ASIP treated cells display similar quantity of α-synuclein compared to healthy, non-treated cells. This indicates ASIP inhibits the accumulation and aggregation of intracellular α-synuclein, and additionally has the potential to reverse the accrual of toxic protein aggregates and reverse impairment of autophagy. […] Thus, as a therapeutic ASIP promotes an environment ideal for recovery and is amenable for cell restoration strategies. Based on the in vitro cellular model presented herein, ASIP halts induction and progression of synucleinopathy and reverses the disease.

The subject of data set [11] is MNT-1 cells. Put plainly: ASIP reversal of α-MSH induced block in autophagy, melanin content. The conditions noted are these: α-MSH exposed cells treated with ASIP vs not treated, FIG. 3. It is filed as cell-based, human. As for the experimental part:
as §3

Regarding `COc1ccc2[nH]cc(CCNC(C)=O)c2c1` [melatonin], in data set [1], the locomotor deficits result is recorded as “stalled locomotor deficits”. Further, the “disease symptoms in patients” value in [2] is recorded as “improved PD symptoms”.

Regarding Pro-Leu-Gly-NH2, the “disease symptoms in patients” value in data set [2] was “improvement in disease symptoms”.

On to “α-Melanocyte Stimulating Hormone [α-MSH]”, for which the “rapamycin-induced cellular autophagy / melanin levels” value in data set [3] is listed as “disabled; also recorded: lower melanin levels; also recorded: reduced”. Moreover, the “gait / leg impairment” value is “progressive leg impairment; also recorded: impaired/weakened right hind leg, loss of symmetry in gait; also recorded: progressive weakness and deteriorating motor control” in [4] (four, six and eight weeks after); “No apparent leg impairment; also recorded: normal gait; also recorded: No significant gait impairment” in data set [4] (two weeks after end of treatment). Further, in [5] (4, 7 and 9 days of exposure to α-MSH vs medium alone), the “apoptotic events (flow cytometry, marker of apoptosis)” value is “increasing apoptotic events”. In addition, the “cell death by apoptosis (fluorescence microscopy)” value in [5] (α-MSH exposed cells, 6 days) is “die by apoptosis”. For the same molecule, the “starvation-induced autophagy / melanin formation” value in data set [6] is “lack of melanin; also recorded: melanin formation is not observed; also recorded: inhibited autophagy and melanin formation”. Further, in [7], the glucose consumption result was “glucose consumption is observed to be faster; also recorded: consume glucose faster than untreated cells”. For the same molecule, the “accumulation and aggregation of intracellular α-synuclein” value in [8] (MNT-1 cells exposed to α-MSH vs not exposed, FIG. 2B) was “inducing accumulation and aggregation of α-synuclein; also recorded: increase in intensity of immunofluorescence staining of intracellular α-synuclein”. Moreover, the “alpha-synuclein aggregation in substantia nigra” value in [9] is listed as “synuclein pathology was observed in the substantia nigra; also recorded: alpha-synuclein aggregation observed in a neuron located in the left substantia nigra; also recorded: Lewy body-like aggregate of alpha-synuclein in the left substantia nigra”.

On to “β-Melanocyte Stimulating Hormone [β-MSH]”, for which the “skin darkening in treated patients” value in data set [2] (patients treated with β-MSH (Cotzias, 1967)) is “darkenening of skin of treated patients”. Also, the “disease symptoms in patients” value in [2] is listed as “worsening of Parkinsonian symptoms”.

B1: Agouti Signaling Protein (protein, UniProt P42127 23-132, looked up)
Agouti-signaling protein: HLPPEEKLRDDRSLRSNSSVNLLDVPSVSIVALNKKSKQIGRKAAEKKRSSKKEASMKKVVRPRTPLSAPCVATRNSCKPPAPACCDPCASCQCRFFRSACSCRVLSLNC
On to B1, for which the “inhibition of α-MSH induced α-synuclein accumulation” value in [8] (MNT-1 cells exposed to α-MSH and ASIP, FIG. 2C) is “halt α-synuclein accumulation and aggregation induced by α-MSH; also recorded: inhibition of α-MSH induced accumulation of α-synuclein; also recorded: decreased levels of α-synuclein measured by immunofluorescence”. Besides, in data set [10], the “cell viability (protection against cell death)” value is “protects against cell death; also recorded: viability is higher; also recorded: Cells maintain viability”. Besides, the “melanin content (restoration of cellular autophagy)” value in [11] was “restoring melanin production; also recorded: increase in melanin content; also recorded: restoration of melanin levels”.

Values taken from patent US20220135968A1, “TREATMENT OF SYNUCLEINOPATHY AND ANIMAL MODELS OF SYNUCLEINOPATHY” (TORREY PINES LAW GROUP, PC, priority 2018, published 2022).
